# Target: T1, human CXCR3 (N-delta 4) (Homo sapiens, UniProt P49682)
# T1 construct: CD8 leader (N); Flag tag; expressed in transfected cells; membrane preparation
# T1 sequence (P49682 5-368 limits assumed): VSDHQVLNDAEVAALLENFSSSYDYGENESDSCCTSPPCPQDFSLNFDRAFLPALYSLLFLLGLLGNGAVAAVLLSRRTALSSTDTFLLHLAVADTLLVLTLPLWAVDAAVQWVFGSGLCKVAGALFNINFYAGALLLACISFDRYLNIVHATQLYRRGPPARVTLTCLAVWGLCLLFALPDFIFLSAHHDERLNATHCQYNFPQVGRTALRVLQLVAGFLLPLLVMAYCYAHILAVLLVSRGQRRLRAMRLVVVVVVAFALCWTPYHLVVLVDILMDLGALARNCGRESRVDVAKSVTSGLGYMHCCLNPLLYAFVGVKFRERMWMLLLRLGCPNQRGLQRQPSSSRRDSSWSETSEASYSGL
# Assay: Human CXCR3 (N-delta 4) scintillation proximity assay (SPA), [125I] IP-10 binding to Ba/F3-hCXCR3 membranes
# Conditions: IC50 rating; [125I] IP-10 displacement, human CXCR3; read-out: IC50
# How it was run: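 Membranes from Ba/F3 cells expressing Flag-tagged hCXCR3 (N-delta 4), 2 μg/point, precoupled to WGA SPA beads. Binding of 25 pM [125I] IP-10 measured with titrated compounds, 3 hr at room temperature, in HEPES buffer with CaCl2, MgCl2, NaCl and 1.0% BSA; bound tracer read by scintillation counting.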
row,Structure (SMILES),IC50 [nM]
1,CC[C@H]1CN(c2ncc(Nc3c(NC4CC4)c(=O)c3=O)cc2Cl)CCN1C1CCN(Cc2ccc(OC(F)F)cc2)CC1 [Compound 74],< 25
2,CC[C@H]1CN(c2ncc(NS(C)(=O)=O)cc2Cl)CCN1C1CCN(Cc2ccc(Cl)cc2NS(C)(=O)=O)CC1 [Compound 52],> 100
3,C[C@@H]1CN(C2CCN(Cc3ccc(Cl)cc3F)CC2)[C@@H](C)CN1c1ncc(Nc2c(NC3CC3)c(=O)c2=O)cc1Cl [Compound 90],< 25
4,CC[C@H]1CN(c2ncc(Nc3c(NCCN(C)C)c(=O)c3=O)cc2Cl)CCN1C1CCN([C@H](CO)c2ccc(Cl)cc2)CC1 [Compound 95],< 25
5,CC[C@H]1CN(c2ncc(NS(=O)(=O)NC(=O)OC(C)(C)C)cc2Cl)CCN1C1CCN(Cc2ccc(Cl)cc2F)CC1 [Compound 55],> 100
6,CC[C@H]1CN(c2ncc(Nc3c(NCC(F)(F)F)c(=O)c3=O)cc2Cl)CCN1C1CCN(Cc2ccc(Cl)cc2F)CC1 [Compound 75],< 25
7,CC[C@H]1CN(c2ncc(Nc3c(NC4CC4)c(=O)c3=O)cc2Cl)CCN1C1CCN([C@H](CO)c2ccc(Cl)cc2)CC1 [Compound 71],< 25
8,CC[C@H]1CN(c2ncc(Nc3c(NC4CC4)c(=O)c3=O)cc2Cl)CCN1C1CCN(Cc2ccc(OC(F)(F)F)cc2)CC1 [Compound 77],< 25
9,CC[C@H]1CN(c2ncc(NS(C)(=O)=O)cc2Cl)CCN1C1CCN(Cc2ccc(Cl)cc2)CC1 [Compound 6],< 25

# The next lines start with the values.
row,IC50 [nM],Structure (SMILES)
1,25 to 100,CC[C@H]1CN(c2ncc(N(C)c3c(NC4CC4)c(=O)c3=O)cc2Cl)CCN1C1CCN(C(CO)c2ccc(Cl)cc2)CC1 (stereo partly shown) [Compound 108]
2,< 25,CC[C@H]1CN(c2ncc(NC3=NS(=O)(=O)N=C3NC3CC3)cc2Cl)CCN1C1CCN(Cc2ccc(OC(F)(F)F)cc2)CC1 [Compound 234]
3,< 25,CC[C@H]1CN(c2ncc(NC3=NS(=O)(=O)N=C3NC3CC3)cc2Cl)CCN1C1CCN(Cc2ccc(C(F)(F)F)cc2)CC1 [Compound 245]
4,> 100,CC(C)C1CCC(N2CCC(N3C[C@H](C)N(c4ncc(Nc5c(NCC(F)(F)F)c(=O)c5=O)cc4Cl)C[C@H]3C)CC2)CC1 (stereo partly shown) [Compound 127]
5,> 100,CC[C@H]1CN(c2nc(N)c(N)nc2Cl)CCN1C1CCN(Cc2ccc(Cl)cc2F)CC1 [Compound 219]
6,> 100,C[C@@H]1CN(c2ncc(Nc3c(NCC(F)(F)F)c(=O)c3=O)cc2Cl)[C@@H](C)CN1C1CCN(Cc2ccccc2Sc2ccc(Cl)cc2)CC1 [Compound 138]
7,25 to 100,CC[C@H]1CN(c2ncc(Nc3c(NCC(=O)OC(C)(C)C)c(=O)c3=O)cc2Cl)CCN1C1CCN([C@H](CO)c2ccc(Cl)cc2)CC1 [Compound 110]
8,> 100,CC[C@H]1CN(c2ncc(NC3=NS(=O)(=O)N=C3NC3CC3)cc2Cl)CCN1C1CCN(C(=O)c2ccc(Cl)cc2O)CC1 [Compound 275]
9,> 100,CCCCNC1=NS(=O)(=O)N=C1Nc1cnc(N2CCN(C3CCN(Cc4ccc(Cl)cc4C#N)CC3)[C@@H](CC)C2)c(Cl)c1 [Compound 273]
10,< 25,C[C@@H]1CN(C2CCN(Cc3ccc(Cl)cc3F)CC2)[C@@H](C)CN1c1ncc(Nc2c(N)c(=O)c2=O)cc1Cl [Compound 100]
11,25 to 100,CC[C@H]1CN(c2c(F)cc(Nc3c(NC4CC4)c(=O)c3=O)cc2Cl)CCN1C1CCN(Cc2ccc(Cl)cc2F)CC1 [Compound 105]
12,25 to 100,CC[C@H]1CN(c2ncc(NC3=NS(=O)(=O)N=C3N)cc2Cl)CCN1C1CCN(Cc2ccc(Cl)cc2F)CC1 [Compound 259]
13,> 100,CC[C@H]1CN(c2ncc(NC3=NS(=O)(=O)N=C3NCC(=O)O)cc2Cl)CCN1C1CCN(Cc2ccc(Cl)cc2F)CC1 [Compound 280]
